“And” between values parts separate entries of the source, which are not always exact repeats. Equal entries are not always repeated. Where two headings read alike, the source gives them in different places.
What was measured:
[1] = target: T1, recombinant h (human) furin (Homo sapiens, UniProt P09958); assay: In vitro furin assay with Boc-RVRR-MCA (50 µM), aromatic enediyne compounds; format: biochemical; conditions: for inhibition at 100 µM: read-out: Furin inhibition at a single concentration
T1 construct: pure soluble recombinant h (human) furin; purchased New England Biolabs
Excerpt: (§1) Most aromatic enediyne compounds are chemically highly reactive and can easily generate upon heating reactive bis-radical species via Bergman cyclo-aromatization reaction, [32]. It is a possibility that these reactive intermediates may then react with one or more of the catalytic amino acid residues His, Ser or Asp of PC-enzymes leading to chemical modifications of latter. This notion is supported by several studies involving interactions of amino acids either free or within protein sequences [41]–[46]. Based on this rationale we proposed that such types of molecules may therefore inhibit the protease activities of these enzymes. To test this hypothesis, we first synthesized several aromatic enediyne derivatives and examined in vitro their effects on proteolytic activities of three key members of PC-family enzymes namely furin, PC5 and PC7. In vitro enzyme assay of PCs against Boc-RVRR-MCA substrate (50 µM), in the absence and presence of various synthetic aromatic enediyne compounds (Fig. 1) indicated weak to modest inhibitory activities of these compounds. […] This is the first report of PC-inhibitory activity of an enediyne compound. This finding prompted us to the idea of incorporating an enediyne function within a peptide sequence which may enhance the potency and selectivity of furin inhibition. To accomplish this, we designed and synthesized an enediynyl amino acid (Eda) derivative with its amino terminal protected by Fmoc (9H-fluoren-9-ylmethoxy carbonyl) group so that it can be directly used in solid phase peptide synthesis.
Figure 1 List of synthetic aromatic enediyne derivatives and their effects on protease activities of Proprotein Convertases Furin, PC5 and PC7. […] The enzyme assay was carried out by using the fluorogenic peptide substrate Boc-RVRR-MCA (50 µM final concentration) as described in [27]. ND = not determined. TEXT PRINTED IN THE PICTURE: AB-1: MW 438; Furin: 29.9 ± 1.5; PC5: 33% (57 mM); PC7: 30.4 ± 3.5 | AB-2: MW 390; Furin: 10.5 ± 1.8; PC5: 34.5 ± 5.8; PC7: 8.5 ± 1.8 | AB-3: MW 506; Furin: 14.2 ± 1.8; PC5: 17.2± 3.4 | AB-4: MW 258; Furin: 10% at 100 μM | AB-5: MW 259; Furin: 12% at 100 μM | AB-6: MW 780; Furin: 192 ± 6.7 | AB-6-Ni: MW 838; Furin: 160 ± 2.5
While pure soluble recombinant h (human) furin was obtained commercially from New England Biolabs (Boston, Ma, USA), recombinant m (mouse) PC5 and soluble hPC7 were obtained in partially purified form as described earlier.

[2] = target: T2, recombinant m (mouse) PC5 (Mus musculus, UniProt Q04592); assay: In vitro PC5 assay with Boc-RVRR-MCA (50 µM), aromatic enediyne compounds; format: biochemical
T2 construct: made in house
Excerpt: as §1, with “This finding prompted us to the idea of incorporating an enediyne function within a peptide sequence which may enhance the potency and selectivity of furin inhibition. To accomplish this, we designed and synthesized an enediynyl amino acid (Eda) derivative with its amino terminal protected by Fmoc (9H-fluoren-9-ylmethoxy carbonyl) group so that it can be directly used in solid phase peptide synthesis.” left out
(§2) Figure 1 List of synthetic aromatic enediyne derivatives and their effects on protease activities of Proprotein Convertases Furin, PC5 and PC7. […] ND = not determined. […]

soluble hPC7 = target: T3, soluble hPC7 (Homo sapiens, UniProt Q16549); assay: In vitro PC7 assay with Boc-RVRR-MCA (50 µM), aromatic enediyne compounds; format: biochemical
T3 construct: soluble hPC7 were obtained in partially purified form; made in house
T3 sequence (Q16549 142-667 limits assumed): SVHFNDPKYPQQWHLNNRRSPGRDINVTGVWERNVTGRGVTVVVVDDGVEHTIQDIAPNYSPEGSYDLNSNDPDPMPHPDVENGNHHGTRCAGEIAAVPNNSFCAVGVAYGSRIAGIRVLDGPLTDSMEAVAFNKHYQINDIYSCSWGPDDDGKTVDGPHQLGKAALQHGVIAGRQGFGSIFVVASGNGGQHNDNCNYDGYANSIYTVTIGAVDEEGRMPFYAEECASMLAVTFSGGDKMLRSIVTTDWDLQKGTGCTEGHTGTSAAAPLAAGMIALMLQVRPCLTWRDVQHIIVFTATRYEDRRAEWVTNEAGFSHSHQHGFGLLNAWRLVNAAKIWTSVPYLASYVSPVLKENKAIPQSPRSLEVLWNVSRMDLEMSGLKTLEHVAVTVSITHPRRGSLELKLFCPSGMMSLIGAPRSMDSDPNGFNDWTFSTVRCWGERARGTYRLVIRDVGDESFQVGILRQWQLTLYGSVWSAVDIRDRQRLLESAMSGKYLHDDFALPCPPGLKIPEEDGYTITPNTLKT
Excerpt: as §1, with “This finding prompted us to the idea of incorporating an enediyne function within a peptide sequence which may enhance the potency and selectivity of furin inhibition. To accomplish this, we designed and synthesized an enediynyl amino acid (Eda) derivative with its amino terminal protected by Fmoc (9H-fluoren-9-ylmethoxy carbonyl) group so that it can be directly used in solid phase peptide synthesis.” left out
as §2

[3] = test system: furin processing of proPDGF-A in CHO cells; assay: Processing of FLAG-tagged proPDGF-A in CHO cells (western blot); format: cell-based; conditions: 24 h, FLAG antibody western blot
Excerpt: (§3) The result was compared in parallel with the commercial furin inhibitor Dec (decanoyl)-RVRR-cmk (chloromethyl ketone) and the 83-mer synthetic full length prodomain protein of hfurin [49]. […] This was reflected by the strong appearance of 22 kDa proPDGF-A band which was completely absent in the control experiment done in parallel without the presence of any inhibitor. […] The effect was compared in parallel with that done with the known furin inhibitor dec-RVRR-cmk.
CHO-cells expressing FLAG-tagged PDGF-A were grown in DMEM medium as described (43) until the cells achieved ∼80% confluency (24 h), At this stage the medium was removed, cells were washed and grown in fresh buffer supplemented with furin-Eda peptide (50 µM final concentration). The media and cells were harvested after another 24 h cell growth. The collected media were concentrated ∼20-fold using centricon filtration system (Amersham Biosciences Inc, cut off MW = 3 kDa) and subjected to western blot analysis using FLAG antibody for the presence of full length proPDGF-A and its C-terminal mature form obtained following cleavage by endogenous furin present in CHO cells. […] For quantitative purpose, each sample was also analyzed for the presence of actin by immunoblot using a specific antibody.

[4] = test system: furin-mediated processing of proVEGF-C in CHO cells; assay: Processing of proVEGF-C in CHO cells (western blot); format: cell-based; conditions: 50 µM
Excerpt: as §3
CHO-cells expressing FLAG-labeled proVEGF-C [57] were grown in DMEM medium as described above in the absence and presence of furin-Eda peptide and the furin inhibitor Dec-RVRR-cmk (each 50 µM concentration). The presence of VEGF-C precursor and its C-terminal processed form generated by furin cleavage were assessed by western blot analysis using FLAG antibody while the level of actin (control house keeping protein) was analyzed by immunoblot for quantitation purpose.

[5] = test system: furin-mediated processing of pro-PDGF-B in CHO cells; assay: Processing of proPDGF-B in CHO cells (western blot); format: cell-based; conditions: for Block of processing of 31 kDa pro-PDGF-B to 17 kDa mature form: 0.5 to 15 µM
Method: CHO-cells expressing endogenous proPDGF-B [58] were grown as described above in the absence and presence of various concentrations ranging from 0.5 to 15 µM of either furin-Eda peptide or α1-Pdx, a known furin inhibitor [50]. Western blots were performed for the presence of proPDGF-B and its processed form using PDGF-B specific antibody. In parallel samples were also analyzed for actin levels.

T1 sequence (P09958 108-715 limits assumed): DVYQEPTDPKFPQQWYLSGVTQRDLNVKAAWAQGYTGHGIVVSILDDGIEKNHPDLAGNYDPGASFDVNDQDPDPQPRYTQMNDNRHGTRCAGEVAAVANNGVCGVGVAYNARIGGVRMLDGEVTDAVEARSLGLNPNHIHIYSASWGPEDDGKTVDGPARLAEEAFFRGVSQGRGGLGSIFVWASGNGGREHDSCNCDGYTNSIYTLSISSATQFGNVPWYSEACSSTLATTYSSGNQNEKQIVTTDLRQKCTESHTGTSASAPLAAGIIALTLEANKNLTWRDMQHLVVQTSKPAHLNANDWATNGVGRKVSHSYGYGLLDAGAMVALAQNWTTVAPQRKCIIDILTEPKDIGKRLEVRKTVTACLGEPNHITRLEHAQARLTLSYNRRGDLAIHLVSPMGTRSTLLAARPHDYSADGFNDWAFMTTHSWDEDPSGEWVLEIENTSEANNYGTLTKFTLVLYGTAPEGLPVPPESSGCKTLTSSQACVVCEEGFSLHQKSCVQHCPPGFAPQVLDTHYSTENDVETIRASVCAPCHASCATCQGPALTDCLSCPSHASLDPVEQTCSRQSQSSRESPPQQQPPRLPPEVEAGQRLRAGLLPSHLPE
T2 sequence (Q04592 117-1877): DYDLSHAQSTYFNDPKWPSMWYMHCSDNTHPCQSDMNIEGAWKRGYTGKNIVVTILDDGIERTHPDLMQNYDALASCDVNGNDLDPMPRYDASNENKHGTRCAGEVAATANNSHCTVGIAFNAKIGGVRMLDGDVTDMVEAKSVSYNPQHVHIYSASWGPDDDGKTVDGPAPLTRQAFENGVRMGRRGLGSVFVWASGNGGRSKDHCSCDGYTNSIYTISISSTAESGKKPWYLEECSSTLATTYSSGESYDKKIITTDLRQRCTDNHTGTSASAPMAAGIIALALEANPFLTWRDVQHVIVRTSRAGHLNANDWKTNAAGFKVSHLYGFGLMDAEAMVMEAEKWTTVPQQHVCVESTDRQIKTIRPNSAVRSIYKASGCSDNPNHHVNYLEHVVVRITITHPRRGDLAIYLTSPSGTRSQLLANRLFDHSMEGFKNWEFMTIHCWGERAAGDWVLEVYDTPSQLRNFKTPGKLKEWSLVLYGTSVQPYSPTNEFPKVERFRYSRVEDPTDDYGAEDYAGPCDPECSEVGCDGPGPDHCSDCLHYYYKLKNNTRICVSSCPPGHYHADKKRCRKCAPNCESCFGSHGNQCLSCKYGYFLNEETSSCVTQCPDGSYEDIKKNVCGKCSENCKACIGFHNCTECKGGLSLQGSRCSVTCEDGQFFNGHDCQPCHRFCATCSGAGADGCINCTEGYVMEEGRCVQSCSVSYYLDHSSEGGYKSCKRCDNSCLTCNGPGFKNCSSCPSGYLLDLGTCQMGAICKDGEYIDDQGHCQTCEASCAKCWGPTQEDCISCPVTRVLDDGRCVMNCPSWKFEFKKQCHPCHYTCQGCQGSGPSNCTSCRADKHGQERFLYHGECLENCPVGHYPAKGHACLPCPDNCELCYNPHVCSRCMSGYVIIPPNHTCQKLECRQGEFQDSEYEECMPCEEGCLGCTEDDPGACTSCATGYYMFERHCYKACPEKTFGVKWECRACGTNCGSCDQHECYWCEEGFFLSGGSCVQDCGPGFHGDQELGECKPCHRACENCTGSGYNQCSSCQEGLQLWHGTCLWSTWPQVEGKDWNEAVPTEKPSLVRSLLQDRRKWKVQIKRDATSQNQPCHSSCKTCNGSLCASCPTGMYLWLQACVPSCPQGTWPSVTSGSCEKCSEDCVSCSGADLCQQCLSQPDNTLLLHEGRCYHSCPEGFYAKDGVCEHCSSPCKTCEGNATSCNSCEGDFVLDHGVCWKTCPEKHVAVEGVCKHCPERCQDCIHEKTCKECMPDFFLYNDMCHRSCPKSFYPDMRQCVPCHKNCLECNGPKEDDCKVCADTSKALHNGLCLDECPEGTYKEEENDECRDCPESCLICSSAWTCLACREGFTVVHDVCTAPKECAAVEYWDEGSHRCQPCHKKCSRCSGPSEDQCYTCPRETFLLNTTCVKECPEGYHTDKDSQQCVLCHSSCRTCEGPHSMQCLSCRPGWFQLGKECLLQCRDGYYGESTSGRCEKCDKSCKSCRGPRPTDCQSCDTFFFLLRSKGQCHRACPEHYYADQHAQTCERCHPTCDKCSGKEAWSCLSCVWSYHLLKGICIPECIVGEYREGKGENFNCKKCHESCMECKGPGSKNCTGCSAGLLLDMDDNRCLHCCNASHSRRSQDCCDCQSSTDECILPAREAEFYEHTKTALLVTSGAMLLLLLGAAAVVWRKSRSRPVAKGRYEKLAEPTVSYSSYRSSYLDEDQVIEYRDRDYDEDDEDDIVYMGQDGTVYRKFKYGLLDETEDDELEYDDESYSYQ

In the case of C1#Cc2ccccc2C#CCN(Cc2ccccc2)CCN(Cc2ccccc2)C1 [AB-2], the IC50 [1] is reported as 10.5 µM, the IC50 ([2]; IC50 for inhibition of PC5, Boc-RVRR-MCA 50 µM final concentration) is reported as 34 µM and 34.5 µM and the IC50 (soluble hPC7) is reported as 8.5 µM.
Cc1ccc(S(=O)(=O)N2CC#Cc3ccccc3C#CCN(S(=O)(=O)c3ccc(C)cc3)c3cccc2c3)cc1 [AB-3] was tested, and the IC50 ([1]; read-out: IC50 for inhibition of furin, Boc-RVRR-MCA 50 µM final concentration) was 14.2 ± 1.8 µM, the IC50 ([2]; read-out: IC50 for inhibition of PC5, Boc-RVRR-MCA 50 µM final concentration) was 17.2 ± 3.4 µM and the “Effect on PC7 protease activity” value (soluble hPC7; Boc-RVRR-MCA 50 µM) was “minor protease activating effect”.
C1#Cc2ccccc2C#CCNc2cccc(c2)NC1 [AB-4] showed an inhibition at 100 µM [1] of 10%.
In the case of C1#Cc2ccccc2C#CCNc2cccc(n2)NC1 [AB-5], the inhibition at 100 µM [1] is reported as 12%.
With C1#Cc2ccccc2C#CCN(Cc2ccccc2)CCN(Cc2ccccc2)CC#Cc2ccccc2C#CCN(Cc2ccccc2)CCN(Cc2ccccc2)C1 [AB-6] the IC50 [1] was 192 ± 6.7 µM.
CC(C)[C@H](NC(=O)[C@H](CCC(N)=O)NC(=O)[C@@H](N)CCC(N)=O)C(=O)N[C@@H](C)C(=O)N[C@@H](CCCCN)C(=O)N[C@@H](CCCNC(=N)N)C(=O)N[C@@H](CCCNC(=N)N)C(=O)N[C@H](C(=O)N[C@@H](CCCCN)C(=O)N[C@@H](CCCNC(=N)N)C(=O)NCCC#Cc1ccccc1C#CCCC(=O)N[C@@H](CC(=O)O)C(=O)N[C@H](C(=O)N[C@@H](Cc1ccc(O)cc1)C(=O)N[C@@H](CCC(N)=O)C(=O)N[C@@H](CCC(=O)O)C(N)=O)C(C)C)[C@@H](C)O [furin-Eda-peptide (II)] was tested, and the “Block of cleavage of 22 kDa pro-PDGF-A to 14 kDa mature PDGF-A” value ([3]; 50 µM) was “block efficiently”, the “Block of cleavage of 50 kDa proVEGF-C to 28 kDa mature VEGF-C” value [4] was “block significantly” and the “Effect on formation of 22 kDa intermediate form of PDGF-B” value [5] was “neither inhibitors displayed any effect”. The “Block of processing of 31 kDa pro-PDGF-B to 17 kDa mature form” value [5] was “block furin-mediated processing”.
In the case of “Dec (decanoyl)-RVRR-cmk (chloromethyl ketone) [Dec-RVRR-cmk, reference compound]”, the “Block of cleavage of 22 kDa pro-PDGF-A to 14 kDa mature PDGF-A” value ([3]; 10 and 50 µM) is reported as “block efficiently” and the “Block of cleavage of 50 kDa proVEGF-C to 28 kDa mature VEGF-C” value [4] is reported as “block significantly”.
With “α1-Pdx: bioengineered protein, known potent inhibitor of furin” the “Effect on formation of 22 kDa intermediate form of PDGF-B” value [5] was “neither inhibitors displayed any effect” and the “Block of processing of 31 kDa pro-PDGF-B to 17 kDa mature form” value [5] was “highly comparable”.
